Laboratory results: patent publication US20230203059A1, “MACROCYCLIC JAK INHIBITOR AND USES THEREOF” (Biopolar Hongye (Guangdong) Pharmaceutical Co. Ltd., priority 2020, published 2023)

Columns and labels:
Format in all cases: biochemical
[1] = biological target: TYK2 (Homo sapiens, UniProt P29597); assay: JAK kinase activity, homogeneous time-resolved fluorescence (TYK2 reaction system); conditions: ATP 2 μM, TYK2 protein 0.2 ng/μL; read-out: TYK 2 activity
In short: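 Activity read as the 665 nm/615 nm ratio after adding EDTA-containing detection mix with anti-phospho-substrate antibody and XL-615. Beforehand, 0.2 ng/μL TYK2, 2 μM ATP, substrate and compound reacted 1 h in pH 7.0 Hepes buffer with MgCl2 and DTT. IC50 fitted with Hill-slope equation.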

[2] = biological target: JAK1 (Homo sapiens, UniProt P23458); assay: JAK kinase activity, homogeneous time-resolved fluorescence (JAK1 reaction system); conditions: ATP 2 μM, JAK1 protein 0.2 ng/μL; read-out: JAK 1 activity
In short: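 Kinase activity read as the 665 nm/615 nm time-resolved fluorescence ratio (320 nm excitation) after EDTA-containing antibody and XL-615 addition. Reaction ran 1 h at pH 7.0 (Hepes, MgCl2, DTT) with 0.2 ng/μL JAK1 and ATP at 2 μM. IC50 derived by Hill-slope fit.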

[3] = biological target: JAK2 (Homo sapiens, UniProt O60674); assay: JAK kinase activity, homogeneous time-resolved fluorescence (JAK2 reaction system); conditions: ATP 2 μM, JAK2 protein 0.01 ng/μL
In short: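 IC50 derived by Hill-equation fit of the 665/615 nm time-resolved fluorescence ratio after EDTA-containing detection mix with anti-phosphosubstrate antibody. Preceding 1 h reaction contained 2 μM ATP, 0.01 ng/μL JAK2, substrate, 50 mM Hepes pH 7.0, 5 mM MgCl2, 1 mM DTT.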

[4] = biological target: T1, JAK3 (Homo sapiens, UniProt P52333); assay: JAK kinase activity, homogeneous time-resolved fluorescence (JAK3 reaction system); conditions: ATP 2 μM, JAK3 protein 0.04 ng/μL; read-out: JAK 3 activity
T1 sequence (P52333 1-1124): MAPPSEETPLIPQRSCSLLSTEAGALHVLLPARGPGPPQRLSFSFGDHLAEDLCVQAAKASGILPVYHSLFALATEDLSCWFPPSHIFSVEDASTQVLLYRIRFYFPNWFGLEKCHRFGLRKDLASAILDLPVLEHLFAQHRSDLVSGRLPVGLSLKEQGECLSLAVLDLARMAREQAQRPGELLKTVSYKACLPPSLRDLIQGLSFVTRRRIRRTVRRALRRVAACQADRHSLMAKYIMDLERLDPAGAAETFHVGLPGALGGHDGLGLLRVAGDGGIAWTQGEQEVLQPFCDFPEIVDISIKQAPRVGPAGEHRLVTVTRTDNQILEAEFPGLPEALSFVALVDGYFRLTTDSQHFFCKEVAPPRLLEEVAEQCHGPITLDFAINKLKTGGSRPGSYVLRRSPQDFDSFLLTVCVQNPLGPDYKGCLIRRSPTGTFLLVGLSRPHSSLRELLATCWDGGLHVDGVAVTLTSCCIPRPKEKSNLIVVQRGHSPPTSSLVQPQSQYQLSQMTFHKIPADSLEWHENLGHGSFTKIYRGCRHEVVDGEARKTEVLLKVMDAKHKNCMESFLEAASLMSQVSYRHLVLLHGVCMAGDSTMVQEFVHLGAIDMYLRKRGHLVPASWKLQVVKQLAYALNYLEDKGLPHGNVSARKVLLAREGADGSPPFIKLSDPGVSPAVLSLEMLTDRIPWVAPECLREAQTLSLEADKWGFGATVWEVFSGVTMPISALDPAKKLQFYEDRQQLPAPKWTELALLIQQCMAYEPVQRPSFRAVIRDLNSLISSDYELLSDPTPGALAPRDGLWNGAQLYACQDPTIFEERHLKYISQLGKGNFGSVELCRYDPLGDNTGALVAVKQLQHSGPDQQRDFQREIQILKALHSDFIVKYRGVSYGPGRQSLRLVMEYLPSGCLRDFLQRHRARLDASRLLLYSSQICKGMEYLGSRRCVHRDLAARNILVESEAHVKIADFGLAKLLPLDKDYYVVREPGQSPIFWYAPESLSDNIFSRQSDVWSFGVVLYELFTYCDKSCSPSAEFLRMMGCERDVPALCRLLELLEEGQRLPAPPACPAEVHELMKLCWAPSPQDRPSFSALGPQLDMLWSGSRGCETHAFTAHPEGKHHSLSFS

Sequence of TYK2 (P29597 whole entry): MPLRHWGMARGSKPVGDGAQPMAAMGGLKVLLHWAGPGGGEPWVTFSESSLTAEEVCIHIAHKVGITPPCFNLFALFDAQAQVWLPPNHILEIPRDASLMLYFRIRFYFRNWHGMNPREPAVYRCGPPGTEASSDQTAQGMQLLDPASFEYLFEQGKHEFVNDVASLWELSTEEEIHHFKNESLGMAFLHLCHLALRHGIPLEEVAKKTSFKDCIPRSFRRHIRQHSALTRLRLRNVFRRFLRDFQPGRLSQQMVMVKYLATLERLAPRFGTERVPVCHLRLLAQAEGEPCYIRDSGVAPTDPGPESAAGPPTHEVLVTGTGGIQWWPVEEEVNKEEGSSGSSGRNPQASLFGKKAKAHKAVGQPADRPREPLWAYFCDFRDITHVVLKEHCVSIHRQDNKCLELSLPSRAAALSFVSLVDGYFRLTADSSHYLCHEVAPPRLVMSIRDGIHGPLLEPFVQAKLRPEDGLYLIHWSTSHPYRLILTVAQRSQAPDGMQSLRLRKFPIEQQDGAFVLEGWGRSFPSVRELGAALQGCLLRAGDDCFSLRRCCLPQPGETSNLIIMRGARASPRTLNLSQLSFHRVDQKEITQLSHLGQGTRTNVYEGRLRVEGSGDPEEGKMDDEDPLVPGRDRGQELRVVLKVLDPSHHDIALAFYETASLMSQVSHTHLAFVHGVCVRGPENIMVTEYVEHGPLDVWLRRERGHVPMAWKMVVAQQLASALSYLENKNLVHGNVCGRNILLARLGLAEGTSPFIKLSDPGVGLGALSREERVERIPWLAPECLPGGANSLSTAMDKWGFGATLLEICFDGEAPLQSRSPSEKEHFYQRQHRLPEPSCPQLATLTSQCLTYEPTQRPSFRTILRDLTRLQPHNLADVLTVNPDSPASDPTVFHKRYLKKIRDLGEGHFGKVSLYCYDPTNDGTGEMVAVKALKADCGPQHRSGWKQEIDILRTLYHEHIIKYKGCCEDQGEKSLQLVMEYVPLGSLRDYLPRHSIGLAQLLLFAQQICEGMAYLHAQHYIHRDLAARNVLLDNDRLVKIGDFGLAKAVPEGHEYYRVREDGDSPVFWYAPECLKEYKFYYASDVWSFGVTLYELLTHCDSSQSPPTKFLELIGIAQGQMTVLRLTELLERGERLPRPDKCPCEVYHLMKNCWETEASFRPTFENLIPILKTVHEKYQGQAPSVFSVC
Sequence of JAK2 (O60674 whole entry): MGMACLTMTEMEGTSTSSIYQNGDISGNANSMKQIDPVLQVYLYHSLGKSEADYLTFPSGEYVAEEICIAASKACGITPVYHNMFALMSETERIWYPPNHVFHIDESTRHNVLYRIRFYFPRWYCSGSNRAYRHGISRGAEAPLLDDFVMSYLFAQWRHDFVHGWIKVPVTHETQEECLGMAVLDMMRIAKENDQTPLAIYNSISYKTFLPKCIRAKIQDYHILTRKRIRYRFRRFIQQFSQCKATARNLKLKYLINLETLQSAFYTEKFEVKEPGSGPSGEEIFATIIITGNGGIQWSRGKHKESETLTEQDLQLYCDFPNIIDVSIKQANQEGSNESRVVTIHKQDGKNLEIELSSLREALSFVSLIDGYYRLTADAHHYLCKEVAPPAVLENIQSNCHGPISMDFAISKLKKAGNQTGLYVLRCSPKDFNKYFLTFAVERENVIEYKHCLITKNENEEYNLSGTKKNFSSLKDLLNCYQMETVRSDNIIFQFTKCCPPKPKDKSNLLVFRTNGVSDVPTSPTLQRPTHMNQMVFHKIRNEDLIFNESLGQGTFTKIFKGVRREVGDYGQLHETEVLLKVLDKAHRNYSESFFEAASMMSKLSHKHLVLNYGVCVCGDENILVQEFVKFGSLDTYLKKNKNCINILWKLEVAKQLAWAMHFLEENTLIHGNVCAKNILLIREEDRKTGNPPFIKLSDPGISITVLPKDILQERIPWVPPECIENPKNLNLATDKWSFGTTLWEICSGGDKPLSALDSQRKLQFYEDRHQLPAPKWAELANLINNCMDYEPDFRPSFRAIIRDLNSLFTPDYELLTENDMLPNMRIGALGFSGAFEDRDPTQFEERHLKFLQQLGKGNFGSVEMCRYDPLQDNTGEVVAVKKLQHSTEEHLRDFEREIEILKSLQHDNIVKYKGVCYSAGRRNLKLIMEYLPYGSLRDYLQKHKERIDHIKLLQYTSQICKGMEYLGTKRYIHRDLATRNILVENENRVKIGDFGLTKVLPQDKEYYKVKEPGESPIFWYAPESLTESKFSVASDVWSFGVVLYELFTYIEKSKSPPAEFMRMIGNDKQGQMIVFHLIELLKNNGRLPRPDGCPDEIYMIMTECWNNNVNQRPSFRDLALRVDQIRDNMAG
Sequence of JAK1 (P23458 whole entry): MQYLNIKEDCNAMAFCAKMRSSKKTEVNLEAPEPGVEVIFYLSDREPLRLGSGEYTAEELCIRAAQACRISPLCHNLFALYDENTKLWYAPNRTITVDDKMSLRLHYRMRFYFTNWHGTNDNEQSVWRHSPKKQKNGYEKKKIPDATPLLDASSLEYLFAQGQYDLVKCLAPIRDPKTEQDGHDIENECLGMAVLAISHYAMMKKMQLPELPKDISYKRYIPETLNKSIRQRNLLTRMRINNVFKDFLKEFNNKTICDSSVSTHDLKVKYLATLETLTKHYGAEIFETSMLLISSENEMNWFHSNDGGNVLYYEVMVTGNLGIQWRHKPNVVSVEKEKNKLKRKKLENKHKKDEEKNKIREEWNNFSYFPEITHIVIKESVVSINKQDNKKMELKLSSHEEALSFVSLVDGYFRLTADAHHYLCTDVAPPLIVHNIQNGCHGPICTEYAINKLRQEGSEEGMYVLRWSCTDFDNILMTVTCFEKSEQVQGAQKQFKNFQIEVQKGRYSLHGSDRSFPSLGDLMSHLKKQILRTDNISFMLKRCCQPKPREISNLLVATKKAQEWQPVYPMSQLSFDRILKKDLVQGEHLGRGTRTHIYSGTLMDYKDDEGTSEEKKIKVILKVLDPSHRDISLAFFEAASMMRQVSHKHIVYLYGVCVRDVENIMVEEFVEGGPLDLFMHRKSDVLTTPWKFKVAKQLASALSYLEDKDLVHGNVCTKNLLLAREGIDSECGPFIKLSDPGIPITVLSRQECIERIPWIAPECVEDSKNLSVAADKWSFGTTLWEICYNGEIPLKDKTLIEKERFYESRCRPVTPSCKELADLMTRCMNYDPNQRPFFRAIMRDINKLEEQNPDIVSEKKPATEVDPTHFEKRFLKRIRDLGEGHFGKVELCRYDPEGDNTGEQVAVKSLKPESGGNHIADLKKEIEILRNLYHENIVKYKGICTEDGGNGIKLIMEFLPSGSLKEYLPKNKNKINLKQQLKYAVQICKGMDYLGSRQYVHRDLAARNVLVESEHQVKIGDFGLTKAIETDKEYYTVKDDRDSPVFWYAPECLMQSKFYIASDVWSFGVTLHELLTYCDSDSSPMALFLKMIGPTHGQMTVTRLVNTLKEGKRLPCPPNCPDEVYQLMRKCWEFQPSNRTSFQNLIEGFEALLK

Row | Structure (SMILES) | IC50 [1] [µM] | IC50 [2] [nM] | IC50 [3] [nM] | IC50 [4] [nM]
1 | Nc1cc2ccc1-c1ccnc(n1)Nc1ccc(OCC3CCCOC3)c(c1)COc1ccc(cc1)NC2=O (centres unmarked) [Example 213, 1^2-amino-4^4-((tetrahydro-2H-pyran-3-yl)methoxy)-6-oxa-3,8-diaza-2(4,2)-pyrimidina-1,7(1,4),4(1,3)-tri-benzenacyclononaphane-9-one] | > 10 | 1000 to 10000 | 1000 to 10000 | 11 to 100
2 | Nc1cc2ccc1-c1ccnc(n1)Nc1ccc(OCC3CCCCC3)c(c1)COCCCCNC2=O [Example 97, 1^2-amino-4^4-(cyclohexylmethoxy)-6-oxa-3,11-diaza-2(4,2)-pyrimidi-na-1(1,4),4(1,3)-dibenzenacyclodo-decaphan-12-one] | 1 to 10 | 1000 to 10000 | 1000 to 10000 | 11 to 100
3 | CC1CCNC(=O)c2ccc(c([N+](=O)[O-])c2)-c2ccnc(n2)Nc2ccc(OCC3CCCOC3)c(c2)COC1 (centres unmarked) [Example 139, 8-methyl-1^2-nitro-4^4-((tetrahydro-2H-pyran-3-yl)methoxy)-6-oxa-3,11-diaza-2(4,2)-pyrimidina-1(1,4),4(1,3)-dibenzenacyclododecaphan-12-one] | > 10 | 1000 to 10000 | 1000 to 10000 | 101 to 1000
4 | O=C1NCCCCOCc2cc(ccc2F)Nc2nccc(n2)-c2ccc1cc2[N+](=O)[O-] [Example 68, 4^4-fluoro-1^2-nitro-6-oxa-3,11-diaza-2(4,2)-pyrimidina-1(1,4),4(1,3)-di-benzenacyclododecaphan-12-one] | > 10 | 1000 to 10000 | 1000 to 10000 | 101 to 1000
5 | CC1CCNC(=O)c2ccc(c(N)c2)-c2ccnc(n2)Nc2ccc(OCC3CCC3)c(c2)COC1 (centres unmarked) [Example 142] | > 10 | 1000 to 10000 | 1000 to 10000 | 11 to 100
6 | O=C1NCCCCOCc2cc(ccc2OC2COC2)Nc2nccc(n2)-c2ccc1cc2[N+](=O)[O-] [Example 72, 1^2-nitro-4^4-(oxetan-3-oxy)-6-oxa-3,11-diaza-2(4,2)-pyrimidina-1(1,4),4(1,3)-dibenzenacyclododecaphan-12-one] | > 10 | 1000 to 10000 | 1000 to 10000 | 101 to 1000
7 | Nc1cc2ccc1-c1ccnc(n1)Nc1ccc(OCC3COC3)c(c1)COCCCCNC2=O [Example 164, 1^2-amino-4^4-(oxetan-3-ylmethoxy)-6-oxa-3-diaza-2(4,2)-pyrimidina-1(1,4),4(1,3)-dibenzenacyclo-dodecaphan-12-one] | 1 to 10 | 1000 to 10000 | 101 to 1000 | 11 to 100
8 | Nc1cc2ccc1-c1ccnc(n1)Nc1ccc(Oc3ccc(F)cc3)c(c1)COCCCCNC2=O [Example 107, 1^2-amino-4^4-(4-fluorophenoxy)-6-oxa-3,11-diaza-2(4,2)-pyrimidina-1(1,4),4(1,3)-dibenzenacyclo-dodecaphan-12-one] | > 10 | 1000 to 10000 | 101 to 1000 | 11 to 100
9 | CC1CCNC(=O)c2ccc(c([N+](=O)[O-])c2)-c2ccnc(n2)Nc2ccc(OCC3CCC3)c(c2)COC1 (centres unmarked) [Example 141, 4^4-(cyclobutylmethoxy)-8-methyl-1^2-nitro-6-oxa-3,11-diaza-2(4,2)-pyrimidina-1(1,4),4(1,3)-dibenzena-cyclododecaphan-12-one] | > 10 | > 10000 | > 10000 | 1000 to 10000
10 | CC1(C)CCNC(=O)c2ccc(c(N)c2)-c2ccnc(n2)Nc2ccc(OC3CCCOC3)c(c2)COC1 (centres unmarked) [Example 168, 1^2-amino-8,8-dimethyl-4^4-((tetra-hydro-2H-pyran-3-yl)oxy)-6-oxa-3,11-diaza-2(4,2)-pyrimidina-1(1,4),4(1,3)-dibenzenacyclododecaphan-12-one] | > 10 | > 10000 | 1000 to 10000 | 1000 to 10000
11 | Cc1cc2ccc1-c1ccnc(n1)Nc1ccc(N)c(c1)COCCCCNC2=O [Example 78, 4^4-amino-1^2-methyl-6-oxa-3,11-dia-za-2(4,2)-pyrimidina-1(1,4),4(1,3)-dibenzenacyclododecaphan-12-one] | > 10 | 1000 to 10000 | 101 to 1000 | 11 to 100
12 | O=C1Nc2ccc(cc2)OCc2cc(ccc2OCC2CCCOC2)Nc2nccc(n2)-c2ccc1cc2[N+](=O)[O-] (centres unmarked) [Example 212, 1^2-nitro-4^4-((tetrahydro-2H-pyran-3-yl)methoxy)-6-oxa-3,8-diaza-2(4,2)-pyrimidina-1,7(1,4),4(1,3)-tri-benzenacyclononaphane-9-one] | > 10 | 1000 to 10000 | 1000 to 10000 | 1000 to 10000

Second part, the molecule after the results:

Row | IC50 [1] [µM] | IC50 [2] [nM] | IC50 [3] [nM] | IC50 [4] [nM] | Structure (SMILES)
13 | 1 to 10 | 101 to 1000 | 101 to 1000 | 11 to 100 | COc1ccc2cc1COCCCCNC(=O)c1ccc(c(F)c1)-c1ccnc(n1)N2 [Example 15, 1^2-fluoro-4^4-methoxy-6-oxa-3,11-di-aza-2(4,2)-pyrimidina-1(1,4),4(1,3)-dibenzenacyclododecaphan-12-one]
14 | 1 to 10 | 1000 to 10000 | 101 to 1000 | 11 to 100 | C[C@H]1CCOCc2cc(ccc2OC2CCCC2)Nc2nccc(n2)-c2ccc(cc2N)C(=O)NC1 [Example 190]
15 | 1 to 10 | 101 to 1000 | 11 to 100 | < 10 | Nc1cc2ccc1-c1ccnc(n1)Nc1ccc(OC3CCOCC3)c(c1)COCCCCNC2=O [Example 63, 1^2-amino-4^4-(4-tetrahydropyranoxy)-6-oxa-3,11-diaza-2(4,2)-pyrimidina-1(1,4),4(1,3)-dibenzenacyclo-dodecaphan-12-one]
16 | 0.101 to 1 | 11 to 100 | 11 to 100 | 11 to 100 | COc1cnc2nc1-c1ccc(c(F)c1)C(=O)NCCCCOCc1cc(ccc1N1CCOCC1)N2 [Example 58, 1^3-fluoro-2^5-methoxy-4^4-morpholin-6-oxa-3,11-diaza-2(4,2)-pyrimidina-1(1,4),4(1,3)-dibenzenacyclodode-caphan-12-one]
17 | 0.101 to 1 | 101 to 1000 | 11 to 100 | 11 to 100 | O=C1NCCCCOCc2cc(ccc2N2CCOCC2)Nc2nccc(n2)-c2ccc1cc2Cl [Example 30, 1^2-chloro-4^4-morpholin-6-oxa-3,11-diaza-2(4,2)-pyrimidina-1(1,4),4(1,3)-dibenzenacyclododecaphan-12-one]
18 | 0.101 to 1 | 101 to 1000 | 11 to 100 | < 10 | Nc1cc2ccc1-c1ccnc(n1)Nc1ccc(N3CCOCC3)c(c1)COCCCCNC2=O [Example 31, 1^2-amino-4^4-morpholin-6-oxa-3,11-diaza-2(4,2)-pyrimidina-1(1,4),4(1,3)-dibenzenacyclododecaphan-12-one]
19 | 0.011 to 0.1 | 101 to 1000 | 11 to 100 | < 10 | Nc1cc2ccc1-c1ccnc(n1)Nc1ccc(N3CCOCC3)c(c1)COCCCCCNC2=O [Example 50, 1^2-amino-4^4-morpholin-6-oxa-3,12-diaza-2(4,2)-pyrimidina-1(1,4),4(1,3)-dibenzenacyclotridecaphan-13-one]
20 | 0.101 to 1 | 101 to 1000 | 11 to 100 | < 10 | Nc1cc2ccc1-c1ccnc(n1)Nc1cc(cc(N3CCOCC3)c1)COCCCCNC2=O [Example 52, 1^2-amino-4^5-morpholin-6-oxa-3,11-diaza-2(4,2)-pyrimidina-1(1,4),4(1,3)-dibenzenacyclododecaphan-12-one]
